Columns and labels:
Type in all cases: in vivo
[1] = system: ducksalad (Heteranthera limosa); experiment: Test B flooded paddy test; conditions: for Plant response rating, Flood, Ducksalad: 250 g ai/ha, flooded paddy test, visual rating on 0 to 100 scale (0 no effect, 100 complete control) after 13 to 15 days; for Plant response rating, Ducksalad: Flood (flooded paddy test), 13 to 15 days; for Ducksalad plant response rating: Flood, 31 g ai/ha, scale 0 to 100 (0 no effect, 100 complete control)
Outline: (§1)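 2-leaf seedlings; pots flooded 3 cm over soil at treatment; cpd dosed into floodwater, depth kept constant. Greenhouse 13–15 d. Visual rating vs untreated controls, 0 = no effect, 100 = complete control.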

[2] = system: barnyardgrass (Echinochloa crus-galli); experiment: Test B flooded paddy test; conditions: for Plant response rating, Flood, Barnyardgrass: 250 g ai/ha, flooded paddy test, visual rating on 0 to 100 scale (0 no effect, 100 complete control) after 13 to 15 days; for Plant response rating, Barnyardgrass: Flood (flooded paddy test), 13 to 15 days; for Barnyardgrass plant response rating: Flood, 31 g ai/ha, scale 0 to 100 (0 no effect, 100 complete control)
Outline: as §1

[3] = system: umbrella sedge (Cyperus difformis); experiment: Test B flooded paddy test; conditions: for Plant response rating, Flood, Sedge, Umbrella: 250 g ai/ha, flooded paddy test, visual rating on 0 to 100 scale (0 no effect, 100 complete control) after 13 to 15 days; for Plant response rating, Sedge, Umbrella: Flood (flooded paddy test), 13 to 15 days; for Sedge, Umbrella plant response rating: Flood, 31 g ai/ha, scale 0 to 100 (0 no effect, 100 complete control)
Outline: as §1

rice (Oryza sativa) = experiment: Test B flooded paddy test; conditions: for Plant response rating, Flood, Rice: 250 g ai/ha, flooded paddy test, visual rating on 0 to 100 scale (0 no effect, 100 complete control) after 13 to 15 days; for Plant response rating, Rice: Flood (flooded paddy test), 13 to 15 days; for Rice plant response rating: Flood, 31 g ai/ha, scale 0 to 100 (0 no effect, 100 complete control)
Outline: as §1

[4] = system: canarygrass (Phalaris minor); experiment: Test B postemergence plant response; conditions: for Canarygrass plant response rating (0 to 100 scale): 62 g ai/ha, 0 is no effect, 13 to 15 days
Outline: (§2)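 Plants grown in peat/vermiculite medium were sprayed postemergence at 2–18 cm height (1- to 4-leaf stage). After 13–15 days in the greenhouse, response was rated visually against untreated controls on a 0–100 scale (0 no effect, 100 complete control).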

[5] = system: winter barley (Hordeum vulgare); experiment: Test B postemergence plant response; conditions: for Barley plant response rating (0 to 100 scale): 62 g ai/ha, 0 is no effect, 13 to 15 days
Outline: as §2

[6] = system: windgrass (Apera spica-venti); experiment: Test B postemergence plant response; conditions: for Windgrass plant response rating (0 to 100 scale): 62 g ai/ha, 0 is no effect, 13 to 15 days
Outline: as §2

[7] = system: chickweed (Stellaria media); experiment: Test B postemergence plant response; conditions: for Chickweed plant response rating (0 to 100 scale): 62 g ai/ha, 0 is no effect, 13 to 15 days
Outline: as §2

[8] = system: galium (catchweed bedstraw, Galium aparine); experiment: Test B pre-/postemergence plant response; conditions: Preemergence
Outline: (§3)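 Test compounds, formulated in a non-phytotoxic solvent mixture with surfactant, are applied to the soil surface (loam and sand blend) right after seeding, or sprayed over plants at the 1- to 4-leaf stage grown in peat moss/vermiculite medium. After 13 to 15 days under glasshouse conditions, each species is scored visually from 0 (no effect) to 100 (complete control) against controls.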

[9] = system: pigweed (Amaranthus retroflexus); experiment: Test B pre-/postemergence plant response; conditions: for Pigweed plant response rating (0 to 100 scale): 0 is no effect, 13 to 15 days
Outline: as §3

[10] = system: Russian thistle (Salsola kali); experiment: Test B pre-/postemergence plant response; conditions: Preemergence
Outline: as §3

wild oat (Avena fatua) = experiment: Test B pre-/postemergence plant response
Outline: as §3

[11] = system: sunflower (common oilseed sunflower, Helianthus annuus); experiment: Test B pre-/postemergence plant response; conditions: Preemergence
Outline: as §3

[12] = system: nightshade (eastern black nightshade, Solanum ptycanthum); experiment: Test B pre-/postemergence plant response; conditions: Preemergence
Outline: as §3

[13] = 62 g ai/ha, scale of 0 to 100 where 0 is no effect and 100 is complete control
[14] = 125 g ai/ha, scale 0 to 100, 0 is no effect, 100 is complete control
[15] = 16 g ai/ha, Postemergence, 0 to 100 scale
[16] = 31 g ai/ha, postemergence, scale 0 to 100, 0 is no effect, 100 is complete control
[17] = postemergence, 100 is complete control
[18] = Postemergence, 125 g ai/ha, visual rating after 13 to 15 days, scale 0 (no effect) to 100 (complete control)
[19] = 125 g ai/ha, scale 0 to 100, 0 no effect, 100 complete control
[20] = 62 g ai/ha, postemergence, 100 is complete control
[21] = Preemergence, 16 g ai/ha, scale 0 to 100, 0 no effect, 100 complete control
[22] = Preemergence, 31 g ai/ha, scale 0 to 100 (0 no effect, 100 complete control)
[23] = Preemergence, 62 g ai/ha, scale 0 to 100, 0 no effect, 100 complete control
[24] = Preemergence, 125 g ai/ha, scale 0 to 100, 0 no effect, 100 complete control
[25] = 31 g ai/ha, scale 0 to 100 (0 no effect, 100 complete control)
[26] = 62 g ai/ha, scale 0 to 100, 0 no effect, 100 complete control
[27] = Postemergence, 250 g ai/ha, scale 0 to 100 (0 no effect, 100 complete control)

## O=C1CCCC(O)=C1C(=O)c1cnc(-c2cccc(Br)c2)n(-c2ccccc2)c1=O [Compound 69]
[1]
  Plant response rating, Flood, Ducksalad: 20
  Ducksalad plant response rating: 0
[1]; [13]
  Plant response rating, Ducksalad: 0
[1]; [14]
  Plant response rating, Ducksalad: 0
[2]
  Plant response rating, Flood, Barnyardgrass: 30
  Barnyardgrass plant response rating: 0
[2]; [13]
  Plant response rating, Barnyardgrass: 0
[2]; [14]
  Plant response rating, Barnyardgrass: 20
[3]
  Plant response rating, Flood, Sedge, Umbrella: 40
  Sedge, Umbrella plant response rating: 0
[3]; [13]
  Plant response rating, Sedge, Umbrella: 0
[3]; [14]
  Plant response rating, Sedge, Umbrella: 0
Rice (Oryza sativa)
  Plant response rating, Flood, Rice: 0
  Rice plant response rating: 0
Rice (Oryza sativa); [13]
  Plant response rating, Rice: 0
Rice (Oryza sativa); [14]
  Plant response rating, Rice: 0
[4]; [15]
  Plant response rating, Canarygrass: 0
[4]; [16]
  Plant response rating, Canarygrass: 0
[4]; [17]
  Canarygrass plant response rating (0 to 100 scale): 0
[4]; [18]
  Plant response rating, Canarygrass: 25
[5]; [15]
  Plant response rating, Barley: 0
[5]; [16]
  Plant response rating, Barley: 5
[5]; [17]
  Barley plant response rating (0 to 100 scale): 5
[5]; [18]
  Plant response rating, Barley: 15
[6]; [15]
  Plant response rating, Windgrass: 40
[6]; [16]
  Plant response rating, Windgrass: 60
[6]; [17]
  Windgrass plant response rating (0 to 100 scale): 60
[6]; [18]
  Plant response rating, Windgrass: 80
[7]; [15]
  Plant response rating, Chickweed: 95
[7]; [16]
  Plant response rating, Chickweed: 98
[7]; [17]
  Chickweed plant response rating (0 to 100 scale): 98
[7]; [18]
  Plant response rating, Chickweed: 98
[8]; [19]
  Plant response rating, Galium: 0
[9]; [15]
  Plant response rating, Pigweed: 95
[9]; [16]
  Plant response rating, Pigweed: 98
[9]; [20]
  Pigweed plant response rating (0 to 100 scale): 100
[9]; [18]
  Plant response rating, Pigweed: 100
[9]; [21]
  Plant response rating, Pigweed: 95
[9]; [22]
  Plant response rating, Pigweed: 98
[9]; [23]
  Plant response rating, Pigweed: 100
[9]; [24]
  Plant response rating, Pigweed: 100
[10]; [25]
  Plant response rating, Russian Thistle: 100
[10]; [26]
  Plant response rating, Russian Thistle: 100
[10]; [19]
  Plant response rating, Russian Thistle: 100
Wild oat (Avena fatua); [15]
  Plant response rating, Oat, Wild: 50
Wild oat (Avena fatua); [16]
  Plant response rating, Oat, Wild: 60
Wild oat (Avena fatua); 62 g ai/ha, postemergence, 0 is no effect, 100 is complete control, 13 to 15 days
  Oat, Wild plant response rating (0 to 100 scale): 80
Wild oat (Avena fatua); [18]
  Plant response rating, Oat, Wild: 85
Wild oat (Avena fatua); [21]
  Plant response rating, Oat, Wild: 0
Wild oat (Avena fatua); [22]
  Plant response rating, Oat, Wild: 0
Wild oat (Avena fatua); [23]
  Plant response rating, Oat, Wild: 0
Wild oat (Avena fatua); [24]
  Plant response rating, Oat, Wild: 0
[11]; [25]
  Plant response rating, Sunflower: 0
[11]; [26]
  Plant response rating, Sunflower: 0
[11]; [19]
  Plant response rating, Sunflower: 5
[12]; 16 g ai/ha, scale 0 to 100, 0 no effect, 100 complete control
  Plant response rating, Nightshade: 80
[12]; [25]
  Plant response rating, Nightshade: 95
[12]; [26]
  Plant response rating, Nightshade: 98
[12]; [19]
  Plant response rating, Nightshade: 98

## CCCc1ncc(C(=O)C2=C(O)CCCC2=O)c(=O)n1CCC [Compound 72]
[1]
  Plant response rating, Flood, Ducksalad: 0
  Ducksalad plant response rating: 0
[1]; [13]
  Plant response rating, Ducksalad: 0
[1]; [14]
  Plant response rating, Ducksalad: 0
[2]
  Plant response rating, Flood, Barnyardgrass: 30
  Barnyardgrass plant response rating: 0
[2]; [13]
  Plant response rating, Barnyardgrass: 0
[2]; [14]
  Plant response rating, Barnyardgrass: 0
[3]
  Plant response rating, Flood, Sedge, Umbrella: 30
  Sedge, Umbrella plant response rating: 0
[3]; [13]
  Plant response rating, Sedge, Umbrella: 0
[3]; [14]
  Plant response rating, Sedge, Umbrella: 0
Rice (Oryza sativa)
  Plant response rating, Flood, Rice: 20
  Rice plant response rating: 0
Rice (Oryza sativa); [13]
  Plant response rating, Rice: 0
Rice (Oryza sativa); [14]
  Plant response rating, Rice: 20
[4]; [16]
  Plant response rating, Canarygrass: 0
[4]; [17]
  Canarygrass plant response rating (0 to 100 scale): 0
[4]; [18]
  Plant response rating, Canarygrass: 0
[4]; [27]
  Plant response rating, Canarygrass: 0
[5]; [16]
  Plant response rating, Barley: 0
[5]; [17]
  Barley plant response rating (0 to 100 scale): 0
[5]; [18]
  Plant response rating, Barley: 0
[5]; [27]
  Plant response rating, Barley: 0
[6]; [16]
  Plant response rating, Windgrass: 5
[6]; [17]
  Windgrass plant response rating (0 to 100 scale): 20
[6]; [18]
  Plant response rating, Windgrass: 60
[6]; [27]
  Plant response rating, Windgrass: 65
[7]; [16]
  Plant response rating, Chickweed: 70
[7]; [17]
  Chickweed plant response rating (0 to 100 scale): 85
[7]; [18]
  Plant response rating, Chickweed: 90
[7]; [27]
  Plant response rating, Chickweed: 90
[8]; 250 g ai/ha, 0 to 100 scale
  Plant response rating, Galium: 85
[8]; [25]
  Plant response rating, Galium: 0
[8]; [26]
  Plant response rating, Galium: 85
[8]; [19]
  Plant response rating, Galium: 85
[9]; [16]
  Plant response rating, Pigweed: 80
[9]; [20]
  Pigweed plant response rating (0 to 100 scale): 100
[9]; [18]
  Plant response rating, Pigweed: 100
[9]; [27]
  Plant response rating, Pigweed: 100
[9]; [22]
  Plant response rating, Pigweed: 98
[9]; [23]
  Plant response rating, Pigweed: 98
[9]; [24]
  Plant response rating, Pigweed: 100
[10]; [25]
  Plant response rating, Russian Thistle: 0
[10]; [26]
  Plant response rating, Russian Thistle: 30
[10]; [19]
  Plant response rating, Russian Thistle: 80
Wild oat (Avena fatua); [16]
  Plant response rating, Oat, Wild: 0
Wild oat (Avena fatua); [18]
  Plant response rating, Oat, Wild: 30
Wild oat (Avena fatua); [27]
  Plant response rating, Oat, Wild: 40
Wild oat (Avena fatua); [22]
  Plant response rating, Oat, Wild: 0
Wild oat (Avena fatua); [23]
  Plant response rating, Oat, Wild: 0
Wild oat (Avena fatua); [24]
  Plant response rating, Oat, Wild: 0
[11]; [25]
  Plant response rating, Sunflower: 25
[11]; [26]
  Plant response rating, Sunflower: 25
[11]; [19]
  Plant response rating, Sunflower: 65
[12]; [25]
  Plant response rating, Nightshade: 95
[12]; [26]
  Plant response rating, Nightshade: 95
[12]; [19]
  Plant response rating, Nightshade: 98

From patent US8952024B2, “Herbicidal pyrimidone derivatives” (E I du Pont de Nemours and Company, priority 2009, dated 2015)
